{"source": "patent US20230285374A1", "about": "“THERAPEUTIC METHODS USING VADADUSTAT” (Akebia Therapeutics, Inc., priority 2019, published 2023)", "tested_on": "subjects with anemia and Non-Dialysis-Dependent Chronic Kidney Disease (NDD-CKD)", "test": "Phase 3 open-label, active-controlled NDD-CKD Conversion/Correction Study (J01), Compound 1 vs darbepoetin alfa, 52 weeks", "assay_type": "in vivo, human", "from_the_text": "This example describes the first open-label, active-controlled Phase 3 study of Compound 1 (Vadadustat or VDT or MT-6548) for treatment of anemia in subjects with Non-Dialysis-Dependent Chronic Kidney Disease (NDD-CKD) for up to 52 weeks. Efficacy and safety of Compound 1 was compared with darbepoetin alfa (DA) for the treatment of anemia in subjects with NDD-CKD. A subset of the subjects were switching to treatment with Compound 1 from an ESA therapy. […] These findings support the use of vadadustat as a durable, effective therapy for anemia in patients with NDD-CKD.\nThe study population consisted of subjects 20 years of age with NDD-CKD, estimated glomerular filtration rate (eGFR)<60 mL/min/1.73 m^2, and hemoglobin (Hb) values greater than or equal to 8.0 g/dL and less than 11.0 g/dL (correction group) or greater than or equal to 9.0 g/dL and less than 12.5 g/dL (conversion group), who were currently treated with an erythropoiesis stimulating agent (ESA) for anemia.\nFollowing randomization, patients were treated for a period of up to 52 weeks. Patients were then observed post treatment for a period of two (2) weeks (“follow up” period).\nIn order to be eligible for this study, patients were required to meet all of the following inclusion criteria: • Be at least 20 years of age, inclusive; • Have diagnosis of Chronic Kidney Disease with an estimated glomerular filtration rate (eGFR)<60 mL/minute/1.73 m^2 [eGFR (mL/min/1.73 m^2)=194×(serum creatinine)^−1.094×(age)^−0.287(females: ×0.739)] at screening; • Not have received dialysis within 8 weeks prior to the screening period nor expect to start dialysis during the treatment period; • ESA Treatment • Correction group: not receiving ESA for at least eight (8) weeks just before screening; • Conversion group: receiving the same formulation of ESA using the same administration route and the same dose interval (the dose interval should be the one described in the package insert for the ESA formulation) for at least 8 weeks just before screening using the dosages described below: Epoetin alfa and epoetin beta: ≥12,000 IU every 2 weeks Darbepoetin alfa: ≥120 μg every 2 weeks Epoetin beta pegol: ≥250 μg every 4 weeks • Baseline Hb: Correction group: ≥8.0 to <11.0 g/dL Conversion group: ≥9.0 to ≤12.0 g/dL • Have a difference of <1.5 g/dL in Hb for the latest two tests in the screening period; • Have serum ferritin values of ≥100 ng/mL or transferrin saturation of ≥20% during the screening period; and • Have folic acid and vitamin B12 values above standard minimum values during the screening period.\nSubjects deemed ineligible for into the study included those who: • Have anemia due to a cause other than CKD; • Have active bleeding or blood loss during the eight (8) weeks just before screening; • Have received a red blood cell transfusion during the eight (8) weeks just before screening; • Have uncontrolled hypertension; • Have active ocular fundus disease or cannot undergo an ocular fundus examination; • Have been diagnosed with cardiovascular disease, malignancy, or hemisiderosis; • Have a history of adverse drug reactions or a drug allergy; and • Have previously received Compound 1.\n• Average Hb level at weeks 20 and 24 of the treatment period.\n• Hb level at each treatment visit; and • The proportion of patients within the target Hb range (11.0-13.0 g/dL).\nSafety endpoints for this study were defined as follows: • Adverse events (AEs); • Adverse drug reactions; and\nOther endpoints for this study were defined as follows: • Iron-related parameters: serum ferritin, transferrin saturation (TSAT), total iron-binding capacity (TIBC), hepcidin, serum iron, and monthly dose of iron by any route of administration (oral and intravenous); and • Red blood cell indices. […]", "key": {"[1]": {"details": "52 weeks LOCF compared with baseline"}}}
{"smiles": "O=C(O)CNC(=O)c1ncc(-c2cccc(Cl)c2)cc1O", "note": "[Compound 1, Vadadustat]", "values": [{"measurement": "Deaths due to AEs", "setting": "52 weeks", "result": "0 (0.0) n (%)"}, {"measurement": "MCH, change", "setting": "[1]", "result": "significantly increased"}, {"measurement": "MCHC, change", "setting": "[1]", "result": "significantly increased"}, {"measurement": "MCV, change", "setting": "[1]", "result": "significantly increased"}, {"measurement": "RDW, change", "setting": "[1]", "result": "no significant differences"}, {"measurement": "TIBC, change", "setting": "[1]", "result": "significant increase"}, {"measurement": "TSAT, change", "setting": "[1]", "result": "no significant difference"}, {"measurement": "hepcidin, change", "setting": "[1]", "result": "significant decreases"}, {"measurement": "serum ferritin, change", "setting": "[1]", "result": "significant decreases"}, {"measurement": "week at which mean Hb reached the target range (11.0-13.0 g/dL)", "setting": "ESA non-users", "result": 8, "unit": "week"}, {"measurement": "proportion of patients with Hb levels within the target range", "setting": "ESA non-users, Week 52", "result": 71.4, "unit": "%"}, {"measurement": "proportion of patients with Hb levels within the target range", "setting": "ESA non-users, baseline", "result": 15.5, "unit": "%"}, {"measurement": "week at which mean Hb reached the target range (11.0-13.0 g/dL)", "setting": "ESA users", "result": 8, "unit": "week"}, {"measurement": "proportion of patients with Hb levels within the target range", "setting": "ESA users, Hb<11.0 g/dl subgroup, Week 52", "result": 78.3, "unit": "%"}, {"measurement": "proportion of patients with Hb levels within the target range", "setting": "ESA users, Hb<11.0 g/dl subgroup, baseline", "result": 4.7, "unit": "%"}, {"measurement": "proportion of patients with Hb levels within the target range", "setting": "ESA users, Hb≥11.0 g/dl subgroup, Week 52", "result": 80.0, "unit": "%"}, {"measurement": "proportion of patients with Hb levels within the target range", "setting": "ESA users, Hb≥11.0 g/dl subgroup, baseline", "result": 91.9, "unit": "%"}, {"measurement": "proportion of patients with Hb levels within the target range", "setting": "ESA users, Week 52", "result": 79.2, "unit": "%"}, {"measurement": "proportion of patients with Hb levels within the target range", "setting": "ESA users, baseline", "result": 45.0, "unit": "%"}, {"measurement": "Hb levels during the treatment period", "setting": "ESA users, screening Hb ≥11.0 g/dl subgroup", "result": "maintained within the target range throughout the treatment period"}, {"measurement": "time at which mean Hb reached the target range", "setting": "ESA users, screening Hb<11.0 g/dl subgroup", "result": 12, "unit": "weeks"}, {"measurement": "proportion of patients within the target Hb range", "setting": "conversion group, week 24", "result": 66.7, "unit": "%"}, {"measurement": "average Hb at baseline", "setting": "conversion patients", "result": 10.68, "unit": "g/dL"}, {"measurement": "average Hb at week 24", "setting": "conversion patients", "result": 11.27, "unit": "g/dL"}, {"measurement": "average Hb at baseline", "setting": "correction patients", "result": 10.17, "unit": "g/dL"}, {"measurement": "average Hb at week 24", "setting": "correction patients", "result": 11.85, "unit": "g/dL"}, {"measurement": "proportion of patients within the target Hb range of 11.0-13.0 g/dL", "setting": "correction patients, week 24", "result": 69.7, "unit": "%"}, {"measurement": "Adverse drug reaction", "setting": "human, in vivo, 52 weeks", "result": "20 (13.2) n (%)"}, {"measurement": "Cardiac failure (AE of special interest)", "setting": "human, in vivo, 52 weeks", "result": "6 (4.0) n (%)"}, {"measurement": "Cardiovascular event (AE of special interest)", "setting": "human, in vivo, 52 weeks", "result": "3 (2.0) n (%)"}, {"measurement": "Constipation", "setting": "human, in vivo, 52 weeks", "result": "14 (9.3) n (%)"}, {"measurement": "Diarrhea", "setting": "human, in vivo, 52 weeks", "result": "18 (11.9) n (%)"}, {"measurement": "Discontinuation due to AEs", "setting": "human, in vivo, 52 weeks", "result": "10 (6.6) n (%)"}, {"measurement": "Dose reduction or interruption of study drug due to AEs", "setting": "human, in vivo, 52 weeks", "result": "11 (7.3) n (%)"}, {"measurement": "Hyperkalemia (AE of special interest)", "setting": "human, in vivo, 52 weeks", "result": "1 (0.7) n (%)"}, {"measurement": "Malignancy (AE of special interest)", "setting": "human, in vivo, 52 weeks", "result": "2 (1.3) n (%)"}, {"measurement": "Nasopharyngitis", "setting": "human, in vivo, 52 weeks", "result": "37 (24.5) n (%)"}, {"measurement": "Pulmonary hypertension (AE of special interest)", "setting": "human, in vivo, 52 weeks", "result": "0 (0.0) n (%)"}, {"measurement": "Retinal disorder (AE of special interest)", "setting": "human, in vivo, 52 weeks", "result": "4 (2.6) n (%)"}, {"measurement": "Serious AEs", "setting": "human, in vivo, 52 weeks", "result": "42 (27.8) n (%)"}, {"measurement": "Serious adverse drug reaction", "setting": "human, in vivo, 52 weeks", "result": "0 (0.0) n (%)"}, {"measurement": "Subjects with ≥ 1 AE", "setting": "human, in vivo, 52 weeks", "result": "136 (90.1) n (%)"}, {"measurement": "constipation", "setting": "human, in vivo, 52 weeks", "result": 9.3, "unit": "%"}, {"measurement": "diarrhea", "setting": "human, in vivo, 52 weeks", "result": 11.9, "unit": "%"}, {"measurement": "incidence of adverse events (AEs), at least one AE", "setting": "human, in vivo, 52 weeks", "result": 90.1, "unit": "%"}, {"measurement": "incidence of serious adverse events (SAEs)", "setting": "human, in vivo, 52 weeks", "result": 27.8, "unit": "%"}, {"measurement": "nasopharyngitis", "setting": "human, in vivo, 52 weeks", "result": 24.5, "unit": "%"}, {"measurement": "mean Hb level at week 52", "setting": "overall population", "result": 11.51, "unit": "g/dL"}, {"measurement": "week at which mean Hb reached the target range (11.0-13.0 g/dL)", "setting": "overall population", "result": 8, "unit": "week"}, {"measurement": "LSMean of the average Hb at weeks 20 and 24", "setting": "overall population, MMRM", "result": 11.66, "unit": "g/dL"}, {"measurement": "Difference (Compound 1-Darbepoetin alfa) in LSMean of the average Hb at weeks 20 and 24", "setting": "overall population, noninferiority margin −0.75 g/dL", "result": -0.26, "unit": "g/dL"}]}
